# Experimental data as given in US20060258598A1, “Alpha-keto carbonyl calpain inhibitors” (priority 2003, published 2006).
# Assays:
# [1] = target: T1, human μ-calpain (Homo sapiens, UniProt P07384); assay: Enzymatic calpain inhibition assay; format: biochemical; settings: substrate Suc-Leu-Tyr-AMC, read-out: Calp I IC50
# T1 construct: purchased Calbiochem
# T1 sequence (P07384 1-714): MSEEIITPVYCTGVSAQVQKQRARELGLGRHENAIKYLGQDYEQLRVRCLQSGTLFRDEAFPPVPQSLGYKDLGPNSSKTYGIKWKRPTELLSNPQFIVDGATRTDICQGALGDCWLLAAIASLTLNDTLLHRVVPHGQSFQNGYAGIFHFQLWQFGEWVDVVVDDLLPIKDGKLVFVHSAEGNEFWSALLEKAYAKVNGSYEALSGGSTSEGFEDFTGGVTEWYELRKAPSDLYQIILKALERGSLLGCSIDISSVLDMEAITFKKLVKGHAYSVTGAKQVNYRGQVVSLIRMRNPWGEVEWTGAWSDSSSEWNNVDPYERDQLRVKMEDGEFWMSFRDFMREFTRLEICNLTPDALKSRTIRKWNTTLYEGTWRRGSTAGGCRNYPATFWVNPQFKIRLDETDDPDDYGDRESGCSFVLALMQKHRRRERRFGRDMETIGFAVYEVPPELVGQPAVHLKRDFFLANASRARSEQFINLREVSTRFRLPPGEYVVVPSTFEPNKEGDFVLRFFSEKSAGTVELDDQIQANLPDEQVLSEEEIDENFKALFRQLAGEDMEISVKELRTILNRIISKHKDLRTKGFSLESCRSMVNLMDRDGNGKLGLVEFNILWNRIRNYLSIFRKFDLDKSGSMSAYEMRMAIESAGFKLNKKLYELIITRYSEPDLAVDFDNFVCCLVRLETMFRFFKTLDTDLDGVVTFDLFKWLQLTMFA
# T1 sequence (P04632 1-268 partner): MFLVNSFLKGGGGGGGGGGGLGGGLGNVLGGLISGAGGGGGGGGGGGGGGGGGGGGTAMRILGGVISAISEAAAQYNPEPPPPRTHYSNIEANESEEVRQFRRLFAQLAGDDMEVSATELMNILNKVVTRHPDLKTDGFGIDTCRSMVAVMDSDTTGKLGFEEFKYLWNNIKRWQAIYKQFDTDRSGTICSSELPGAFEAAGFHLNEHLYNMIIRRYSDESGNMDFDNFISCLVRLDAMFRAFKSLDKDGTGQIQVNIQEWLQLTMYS
# Protocol: The Ki value was also determined in some cases. These criteria were used to measure the inhibitory effect of the compounds (I) on calpain I, calpain II and cathepsin B.
# Enzymatic Calpain Inhibition Assay
# The inhibitory properties of calpain inhibitors are tested in 100 μl of a buffer containing 100 mM imidazole pH 7.5, 5 mM L-Cystein-HCl, 5 mM CaCl2, 250 μM of the calpain fluorogenic substrate Suc-Leu-Tyr-AMC (Sigma) (Sasaki et al., J. Biol. Chem., 1984, 259, 12489-12949) dissolved in 2.5 μl DMSO and 0.5 μg of human μ-calpain (Calbiochem). The inhibitors dissolved in 1 μl DMSO are added to the reaction buffer. The fluorescence of the cleavage product 7-amino-4-methylcoumarin (AMC) is followed in a SPECTRAmax GEMINI XS (Molecular Device) fluorimeter at λex=360 nm and λem=440 nm at 30° C. during 30 min at intervals of 30 sec in 96-well plates (Greiner). The initial reaction velocity at different inhibitor concentrations is plotted against the inhibitor concentration and the IC50 values determined graphically.
# [2] = system: cellular calpains in C2C12 myoblasts; assay: Calpain inhibition assay in C2C12 myoblasts; format: cell-based; settings: 2 h incubation, calcium ionophore Br-A-23187, read-out: Calp I IC50 Myoblast
# Protocol: Calpain Inhibition Assay in C2C12 Myoblasts
# This assay is aimed at monitoring the ability of the substance to inhibit cellular calpains. C2C12 myoblasts are grown in 96-well plates in growth medium (DMEM, 20% foetal calf serum) until they reach confluency. The growth medium is then replaced by fusion medium (DMEM, 5% horse serum). 24 hours later the fusion medium is replaced by fusion medium containing the test substances dissolved in 1 μl DMSO. After 2 hours of incubation at 37° C. the cells are loaded with the calpain fluorogenic substrate Suc-Leu-Tyr-AMC at 400 μM in 50 μl of a reaction buffer containing 135 mM NaCl; 5 mM KCl; 4 mM CaCl2; 1 mM MgCl2; 10 mM Glucose; 10 mM HEPES pH 7.25 for 20 min at room temperature. The calcium influx, necessary to activate the cellular calpains, is evoked by the addition of 50 μl reaction buffer containing 20 μM of the calcium ionophore Br-A-23187 (Molecular Probes). The fluorescence of the cleavage product AMC is measured as described above during 60 min at 37° C. at intervals of 1 min. The IC50 values are determined as described above. Comparison of the IC50 determined in the enzymatic calpain inhibition assay to the IC50 determined in the C2C12 myoblasts calpain inhibiton assay, allows to evaluate the cellular uptake or the membrane permeability of the substance.
Structure (SMILES),IC50 [1] [nM],IC50 [2] [nM]
CCNC(=O)C(=O)[C@H](Cc1ccc(Cl)cc1)NC(=O)[C@@H](NC(=O)CCC1CCCS1)C(C)C (stereo partly shown) [Example 6],110,3200
Cc1ccc(S(=O)(=O)CNC(=O)C(=O)[C@H](Cc2ccc(Cl)cc2)NC(=O)[C@@H](NC(=O)CCCCC2CCS[S+]2[O-])C(C)C)cc1 (stereo partly shown) [Example 14],200,1200
CCNC(=O)C(=O)[C@H](Cc1ccc(Cl)c(Cl)c1)NC(=O)[C@@H](NC(=O)CCCCC1CCSS1)C(C)C (stereo partly shown) [Example 29],85,10000
CCNC(=O)C(=O)[C@H](Cc1ccc(Cl)cc1Cl)NC(=O)[C@@H](NC(=O)CCCCC1CCS[S+]1[O-])C(C)C (stereo partly shown) [Example 34],500,20000
CCNC(=O)C(=O)[C@H](Cc1ccc(F)c(F)c1)NC(=O)[C@@H](NC(=O)CCCCC1CCSS1)C(C)C (stereo partly shown) [Example 41],100,700
CCNC(=O)C(=O)[C@H](Cc1ccc(I)cc1)NC(=O)[C@H](CC(C)C)NC(=O)CCCCC1CCS[S+]1[O-] (stereo partly shown) [Example 79],15,500
COc1ccc(C[C@H](NC(=O)[C@@H](NC(=O)CCCCC2CCS[S+]2[O-])C(C)C)C(=O)C(=O)O)cc1 (stereo partly shown) [Example 89],60,4000
CCNC(=O)C(=O)[C@H](Cc1ccc(C(C)(C)C)cc1)NC(=O)[C@@H](NC(=O)CCCCC1CCSS1)C(C)C (stereo partly shown) [Example 118],400,1800
CCNC(=O)C(=O)[C@H](Cc1ccc(C(C)(C)C)cc1)NC(=O)[C@H](CC(C)C)NC(=O)CCCCC1CCSS1 (stereo partly shown) [Example 120],95,850
CCNC(=O)C(=O)[C@H](Cc1ccc(C(F)(F)F)cc1)NC(=O)[C@H](CC(C)C)NC(=O)CCCCC1CCS[S+]1[O-] (stereo partly shown) [Example 125],40,800
CCNC(=O)C(=O)[C@H](CC1CCCCC1)NC(=O)[C@@H](NC(=O)CCCCC1CCSS1)C(C)C (stereo partly shown) [Example 149],250,3000
CCNC(=O)C(=O)[C@@H](NC(=O)[C@@H](NC(=O)CCCCC1CCS[S+]1[O-])C(C)C)c1ccccc1 (stereo partly shown) [Example 154],750,–
CCNC(=O)C(=O)[C@H](CC(C)C)NC(=O)[C@@H](NC(=O)CCCCC1CCSS1)C(C)C (stereo partly shown) [Example 157],500,250
CCNC(=O)C(=O)[C@H](Cc1ccc(Cl)cc1)NC(=O)[C@@H](NC(=O)CNC(=O)CCCCC1CCSS1)C(C)C (stereo partly shown) [Example 169],25,1000
CCNC(=O)C(=O)[C@H](Cc1ccc(Cl)cc1)NC(=O)[C@@H](NC(=O)CNC(=O)CCCCC1CCS[S+]1[O-])C(C)C (stereo partly shown) [Example 170],150,4000
CCNC(=O)C(=O)[C@H](Cc1ccc(Cl)cc1)NC(=O)[C@@H](NC(=O)CNC(=O)CCCCC1SC[C@@H]2NC(=O)N[C@H]12)C(C)C (stereo partly shown) [Example 212],150,3500
